Data: US12371454B2, “Cyclic peptide compound having Kras inhibitory action” (priority 2019, dated 2025)
Starred links: 1 amine or outer side, 2 acyl side, 3 side chain; linkers in the order of their positions; H or OH if unused. Positions of bridges follow the written chain, without caps; N, C: chain ends. Non-standard residues stand in square brackets, D forms with d. Residues, ends and D or L forms follow the SMILES beside them. *: point of attachment. NMeAbu(3,3-F2-piperidino) = CN[C@@H](CCN1CCCC(F)(F)C1)C(=O)O; hPhe(3-Cl-4-CF3) = N[C@@H](CCc1ccc(C(F)(F)F)c(Cl)c1)C(=O)O; hPhe(4-CF3) = N[C@@H](CCc1ccc(C(F)(F)F)cc1)C(=O)O; Phe(3-CF3) = N[C@@H](Cc1cccc(C(F)(F)F)c1)C(=O)O; Phe(4-CF3) = N[C@@H](Cc1ccc(C(F)(F)F)cc1)C(=O)O; X17 = Cc1cncc(C[C@@H](C(=O)[*:2])N(C)[*:1])c1; NMePhe(4-Cl) = CN[C@@H](Cc1ccc(Cl)cc1)C(=O)O; NMePhe(2-CN) = CN[C@@H](Cc1ccccc1C#N)C(=O)O; NMePhe(4-Me) = CN[C@@H](Cc1ccc(C)cc1)C(=O)O; NMedβ3hAla = C[C@H](CC(=O)[*:2])N(C)[*:1]; NMeGly(cPent) = CN[C@H](C(=O)O)C1CCCC1; Phe(3-I) = N[C@@H](Cc1cccc(I)c1)C(=O)O; Pro(4,4-F2) = O=C(O)[C@@H]1CC(F)(F)CN1; X26 = O=C([C@@H]1CCC[C@H]1N[*:1])[*:2]; NMeCha = CN[C@@H](CC1CCCCC1)C(=O)O; NMeChg = CN[C@H](C(=O)O)C1CCCCC1; NMeF = CN[C@@H](Cc1ccccc1)C(=O)O; NMeI = CC[C@H](C)[C@H](NC)C(=O)O; NMeβAla = CN(CCC(=O)[*:2])[*:1]; NMeD = CN[C@@H](CC(=O)O)C(=O)O; NMeL = CN[C@@H](CC(C)C)C(=O)O; NMeV = CN[C@H](C(=O)O)C(C)C; Pip = O=C(O)[C@@H]1CCCCN1; dPip = O=C(O)[C@H]1CCCCN1; NMeA = CN[C@@H](C)C(=O)O; NMeAib = CNC(C)(C)C(=O)O; Nle = CCCC[C@H](N)C(=O)O; Piperidide = C1CCN(*)CC1; Pyrrolidide = C1CCN(*)C1; dNMeA = CN[C@H](C)C(=O)O; Ac5c = NC1(C(=O)O)CCCC1; Aze = O=C(O)[C@@H]1CCN1; Ac4c = NC1(C(=O)O)CCC1; Sar = CNCC(=O)O

Molecular target: T1, Kras and SOS1 (biotin-tagged human Kras loaded with GDP, His-tagged human SOS1) (Homo sapiens, UniProt P01116, G12D)
T1 construct: made in house; host or cells: E. coli (stated for Kras only)
Experiment: Protein-protein interaction inhibition between Kras and SOS1 (KrasGl2D-SOS PPI) using AlphaScreen
Assay type: binding
Conditions: AlphaScreen; biotin-tagged human Kras loaded with GDP, His-tagged human SOS1; read-out: KRAS G12D-SOS PPI IC50
Summary of the method: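 Energy transfer from nickel-chelate donor beads bound to His-SOS1 to streptavidin acceptor beads bound to biotin-Kras, expressed in E. coli and loaded with GDP after purification, was monitored. Donors were excited at 680 nm; singlet oxygen reaching acceptors gave emission read at 520-620 nm.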

T1 sequence (P01116 1-188 isoform P01116-2 G12D): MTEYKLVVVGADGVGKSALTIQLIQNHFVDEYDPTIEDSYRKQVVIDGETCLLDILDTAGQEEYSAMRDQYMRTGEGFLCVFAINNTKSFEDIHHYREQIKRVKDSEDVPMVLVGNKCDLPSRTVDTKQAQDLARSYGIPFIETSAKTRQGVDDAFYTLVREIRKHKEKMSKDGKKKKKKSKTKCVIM

| Structure (SMILES) | IC50 [nM] |
| --- | --- |
| CC[C@H](C)[C@@H]1NC(=O)[C@H](CC(C)C)N(C)C(=O)C[C@@H](C(=O)N2CCCCC2)N(C)C(=O)[C@H](CC(C)C)NC(=O)C(C)(C)N(C)C(=O)[C@H](Cc2ccc(C(F)(F)F)cc2)NC(=O)[C@H](Cc2cccc(I)c2)NC(=O)CN(C)C(=O)[C@H](CC2CCCCC2)N(C)C(=O)CN(C)C(=O)CN(C)C1=O [Compound 336] ([NMeL]I[Sar][Sar][NMeCha][Sar][Phe(3-I)][Phe(4-CF3)][NMeAib]L[NMeD]-Piperidide; lactam N-11) | 93 |
| CC[C@H](C)[C@@H]1NC(=O)[C@H](CC(C)C)N(C)C(=O)C[C@@H](C(=O)N2CCCCC2)N(C)C(=O)[C@H](C2CCCCC2)N(C)C(=O)C2(CCCC2)NC(=O)[C@H](Cc2cncc(C)c2)N(C)C(=O)[C@H](CCc2ccc(C(F)(F)F)c(Cl)c2)NC(=O)CN(C)C(=O)[C@H](CC2CCCCC2)N(C)C(=O)[C@@H]2CCN2C(=O)[C@H](C)N(C)C1=O [Compound 338] ([NMeL]I[NMeA][Aze][NMeCha][Sar][hPhe(3-Cl-4-CF3)][X17][Ac5c][NMeChg][NMeD]-Piperidide; lactam N-11) | 220 |
| CC[C@H](C)[C@@H]1NC(=O)[C@H](CC(C)C)N(C)C(=O)[C@@H]2CCC[C@H]2NC(=O)[C@H](C(C)C)N(C)C(=O)C2(CCCC2)NC(=O)[C@@H]2CCCN2C(=O)[C@H](CCc2ccc(C(F)(F)F)c(Cl)c2)NC(=O)CN(C)C(=O)[C@H](CC2CCCCC2)N(C)C(=O)CN(C)C(=O)CN(C)C1=O [Compound 347] (cyclo([Ac5c][NMeV][X26][NMeL]I[Sar][Sar][NMeCha][Sar][hPhe(3-Cl-4-CF3)]P)) | 27 |
| CC[C@H](C)[C@@H]1NC(=O)[C@H](C)N(C)C(=O)C[C@@H](C(=O)N2CCCCC2)N(C)C(=O)[C@H](C(C)C)N(C)C(=O)C2(CCCC2)NC(=O)[C@@H]2CCCN2C(=O)[C@H](CCc2ccc(C(F)(F)F)c(Cl)c2)NC(=O)[C@H]2CCCCN2C(=O)[C@H](CC2CCCCC2)N(C)C(=O)[C@@H]2CCN2C(=O)[C@H](C)N(C)C1=O [Compound 349] ([NMeA]I[NMeA][Aze][NMeCha][dPip][hPhe(3-Cl-4-CF3)]P[Ac5c][NMeV][NMeD]-Piperidide; lactam N-11) | 190 |
| CCCC[C@@H]1NC(=O)[C@H](CCc2ccc(C(F)(F)F)c(Cl)c2)NC(=O)CN(C)C(=O)[C@H](Cc2ccc(Cl)cc2)N(C)C(=O)[C@@H]2CCN2C(=O)CN(C)C(=O)[C@H]([C@@H](C)CC)NC(=O)[C@@H]2CCCCN2C(=O)C[C@@H](C(=O)N2CCCCC2)N(C)C(=O)[C@H](CC(C)C)NC(=O)C(C)(C)N(C)C1=O [Compound 352] ([Pip]I[Sar][Aze][NMePhe(4-Cl)][Sar][hPhe(3-Cl-4-CF3)][Nle][NMeAib]L[NMeD]-Piperidide; lactam N-11) | 5.5 |
| CC[C@H](C)[C@@H]1NC(=O)[C@H](CC(C)C)N(C)C(=O)C[C@@H](C)N(C)C(=O)[C@H](C(C)C)N(C)C(=O)C2(CCCC2)NC(=O)[C@@H]2CCCN2C(=O)[C@H](CCc2ccc(C(F)(F)F)c(Cl)c2)NC(=O)CN(C)C(=O)[C@H](Cc2ccccc2C#N)N(C)C(=O)CN(C)C(=O)CN(C)C1=O [Compound 357] (cyclo([Ac5c][NMeV][NMedβ3hAla][NMeL]I[Sar][Sar][NMePhe(2-CN)][Sar][hPhe(3-Cl-4-CF3)]P)) | 22 |
| CC[C@H](C)[C@@H]1NC(=O)[C@H](CC(C)C)N(C)C(=O)C[C@@H](C)N(C)C(=O)[C@H](C2CCCC2)N(C)C(=O)C2(CCC2)NC(=O)[C@@H]2CC(F)(F)CN2C(=O)[C@H](CCc2ccc(C(F)(F)F)c(Cl)c2)NC(=O)CN(C)C(=O)[C@H](Cc2ccc(C)cc2)N(C)C(=O)CN(C)C(=O)CN(C)C1=O [Compound 359] (cyclo([Ac4c][NMeGly(cPent)][NMedβ3hAla][NMeL]I[Sar][Sar][NMePhe(4-Me)][Sar][hPhe(3-Cl-4-CF3)][Pro(4,4-F2)])) | 3.2 |
| CC[C@H](C)[C@@H]1NC(=O)[C@H](CC(C)C)N(C)C(=O)C[C@@H](C(=O)N(C)C)N(C)C(=O)[C@H](C2CCCC2)N(C)C(=O)C2(CCCC2)NC(=O)[C@@H]2CCCN2C(=O)[C@H](CCc2ccc(C(F)(F)F)c(Cl)c2)NC(=O)CN(C)C(=O)[C@H](Cc2ccc(C)cc2)N(C)C(=O)[C@@H]2CCN2C(=O)[C@H](C)NC1=O [Compound 363, (5S,8S,11S,15S,18S,23aS,29S,35S,37aS)-8-((S)-sec-butyl)-29-(3-chloro-4-(trifluoromethyl)phenethyl)-18-cyclopentyl-11-isobutyl-N,N,5,12,16,19,33,36-octamethyl-35-(4-methylbenzyl)-4,7,10,13,17,20,23,28,31,34,37-undecaoxotetratriacontahydro-2H,4H-spiro[azeto[2,1-u]pyrrolo[2,1-i][1,4,7,10,13,16,19,22,25,28,31]undecaazacyclotetratriacontine-21,1′-cyclopentane]-15-carboxamide] ([NMeL]IA[Aze][NMePhe(4-Me)][Sar][hPhe(3-Cl-4-CF3)]P[Ac5c][NMeGly(cPent)][NMeD]-NMe2; lactam N-11) | 0.65 |
| CC[C@H](C)[C@@H]1NC(=O)[C@H](CC(C)C)NC(=O)C[C@@H](C(=O)N2CCCCC2)N(C)C(=O)[C@H](C(C)C)N(C)C(=O)C2(CCCC2)NC(=O)[C@@H]2CCCN2C(=O)[C@H](CCc2ccc(C(F)(F)F)c(Cl)c2)NC(=O)CN(C)C(=O)[C@H](CC2CCCCC2)N(C)C(=O)[C@@H]2CCN2C(=O)[C@H](C)N(C)C1=O [Compound 368] (LI[NMeA][Aze][NMeCha][Sar][hPhe(3-Cl-4-CF3)]P[Ac5c][NMeV][NMeD]-Piperidide; lactam N-11) | 2.7 |
| CC[C@H](C)[C@@H]1NC(=O)CCN(C)C(=O)CN(C)C(=O)[C@H](C2CCCC2)N(C)C(=O)C2(CCCC2)NC(=O)[C@@H]2CCCN2C(=O)[C@H](CCc2ccc(C(F)(F)F)c(Cl)c2)NC(=O)CN(C)C(=O)[C@H](CC2CCCCC2)N(C)C(=O)CN(C)C(=O)CN(C)C1=O [Compound 369] (cyclo([Ac5c][NMeGly(cPent)][Sar][NMeβAla]I[Sar][Sar][NMeCha][Sar][hPhe(3-Cl-4-CF3)]P)) | 350 |
| CC[C@H](C)[C@@H]1NC(=O)[C@H](C)N(C)C(=O)C[C@@H](C(=O)N2CCCC2)NC(=O)[C@H](CC(C)C)NC(=O)[C@H](Cc2ccccc2)N(C)C(=O)[C@H](CC(C)C)NC(=O)[C@H](CCc2ccc(C(F)(F)F)cc2)NC(=O)CN(C)C(=O)[C@H](Cc2ccc(Cl)cc2)N(C)C(=O)CN(C)C(=O)CN(C)C1=O [Compound 372] ([NMeA]I[Sar][Sar][NMePhe(4-Cl)][Sar][hPhe(4-CF3)]L[NMeF]LD-Pyrrolidide; lactam N-11) | 130 |
| CC[C@H](C)[C@@H]1NC(=O)[C@H](CC(C)C)N(C)C(=O)C[C@@H](C)N(C)C(=O)[C@H](C2CCCCC2)N(C)C(=O)C2(CCC2)NC(=O)[C@@H]2CC(F)(F)CN2C(=O)[C@H](CCc2ccc(C(F)(F)F)c(Cl)c2)NC(=O)CN(C)C(=O)[C@H](Cc2ccc(C)cc2)N(C)C(=O)CN(C)C(=O)CN(C)C1=O [Compound 375] (cyclo([Ac4c][NMeChg][NMedβ3hAla][NMeL]I[Sar][Sar][NMePhe(4-Me)][Sar][hPhe(3-Cl-4-CF3)][Pro(4,4-F2)])) | 12 |
| CC[C@H](C)[C@@H]1NC(=O)[C@H](CC(C)C)N(C)C(=O)C[C@@H](C(=O)N2CCCCC2)N(C)C(=O)[C@H](CC(C)C)NC(=O)C(C)(C)N(C)C(=O)[C@H](Cc2cccc(C(F)(F)F)c2)NC(=O)[C@H](Cc2cccc(I)c2)NC(=O)CN(C)C(=O)[C@H](Cc2ccc(C)cc2)N(C)C(=O)CN(C)C(=O)CN(C)C1=O [Compound 376] ([NMeL]I[Sar][Sar][NMePhe(4-Me)][Sar][Phe(3-I)][Phe(3-CF3)][NMeAib]L[NMeD]-Piperidide; lactam N-11) | 44 |
| CC[C@H](C)[C@@H]1NC(=O)[C@H](CC(C)C)N(C)C(=O)C[C@@H](C(=O)N(C)C)N(C)C(=O)[C@H]([C@@H](C)CC)N(C)C(=O)C2(CCCC2)NC(=O)[C@H](C)N(C)C(=O)[C@H](CCc2ccc(C(F)(F)F)c(Cl)c2)NC(=O)CN(C)C(=O)[C@H](Cc2ccc(C)cc2)N(C)C(=O)[C@@H]2CCN2C(=O)[C@H](C)N(C)C1=O [Compound 378, (3S,6S,9S,13S,16S,22S,25S,31S,34S)-25-[2-[3-chloro-4-(trifluoromethyl)phenyl]ethyl]-9-isobutyl-N,N,3,4,10,14,17,22,23,29,32-undecamethyl-6,16-bis[(1S)-1-methylpropyl]-2,5,8,11,15,18,21,24,27,30,33-undecaoxo-31-(p-tolylmethyl)spiro[1,4,7,10,14,17,20,23,26,29,32-undecazabicyclo[32.2.0]hexatriacontane-19,1′-cyclopentane]-13-carboxamide] ([NMeL]I[NMeA][Aze][NMePhe(4-Me)][Sar][hPhe(3-Cl-4-CF3)][NMeA][Ac5c][NMeI][NMeD]-NMe2; lactam N-11) | 0.68 |
| CC[C@H](C)[C@@H]1NC(=O)[C@H](CC(C)C)N(C)C(=O)C[C@@H](C(=O)N(C)C)N(C)C(=O)[C@H]([C@@H](C)CC)N(C)C(=O)[C@H](C(C)C)NC(=O)[C@H](CCN2CCCC(F)(F)C2)N(C)C(=O)[C@H](CCc2ccc(C(F)(F)F)c(Cl)c2)NC(=O)CN(C)C(=O)[C@H](Cc2ccc(C)cc2)N(C)C(=O)[C@@H]2CCN2C(=O)[C@H](C)N(C)C1=O [Compound 379] ([NMeL]I[NMeA][Aze][NMePhe(4-Me)][Sar][hPhe(3-Cl-4-CF3)][NMeAbu(3,3-F2-piperidino)]V[NMeI][NMeD]-NMe2; lactam N-11) | 13 |
| CC[C@H](C)[C@@H]1NC(=O)[C@H](C)N(C)C(=O)C[C@@H](C(=O)N2CCCCC2)N(C)C(=O)[C@H](C(C)C)N(C)C(=O)C2(CCCC2)NC(=O)[C@@H]2CCCN2C(=O)[C@H](CCc2ccc(C(F)(F)F)c(Cl)c2)NC(=O)[C@@H](C)N(C)C(=O)[C@H](CC2CCCCC2)N(C)C(=O)CN(C)C(=O)CN(C)C1=O [Compound 380] ([NMeA]I[Sar][Sar][NMeCha][dNMeA][hPhe(3-Cl-4-CF3)]P[Ac5c][NMeV][NMeD]-Piperidide; lactam N-11) | 5.6 |
